Source: EP0012139A1, “Therapeutic agent for stimulating the immune response in a mammal” (AMERICAN CYANAMID COMPANY, priority 1978, dated 1980)
Structures can show the parent of a compound that is named as a salt.

Experiments:
[1] = test system: Rauscher leukemia virus; test: Antibody response to sheep red blood cells in Rauscher leukemia virus-infected (leukemic) mice, hemagglutinin test; assay type: in vivo, BALB/C mice; settings: for Hemagglutinin Titer* Test 1: reciprocal of serum dilution producing at least 50% agglutination, infected control 8, non-infected control 1024; for Hemagglutinin Titer* Test 6: infected control 32, non-infected control 2048; for Hemagglutinin Titer* Test 5: infected control 128, non-infected control 4096
[2] = test system: transplantable C3H mammary tumor; test: Transplanted C3H mammary tumor growth in mice; settings: for Ave. tumor diameter (mm.^2) (weeks after tumor implantation 3): week 3, untreated control 22; for Ave. tumor diameter (mm.^2) (weeks after tumor implantation 4): week 4, untreated control 73; for Ave. tumor diameter (mm.^2) (weeks after tumor implantation 5): week 5, untreated control 149; for Ave. tumor diameter (mm.^2) (weeks after tumor implantation 6): week 6, untreated control 218; for Ave. tumor diameter (mm.^2) (weeks after tumor implantation 7): week 7, untreated control 316
Experimental: C3H/HEB/J male mice were inoculated subcutaneously with five 2 mm. fragments of a transplantable C3H mammary tumor on day zero. Drugs were administered once every 7 days for 5 weeks, starting 14 days after tumor inoculation. When test drug (or the control, Corynebacterium parvum) was administered in combination with Cytoxan, it was given 4 days after the Cytoxan. […] Tumor diameters were measured by means of a Vernier caliper. Test substances were considered active if tumor growth, as indicated by tumor diameter, was inhibited by 50% or more.

[3] = 100 mg./kg. orally + Cytoxan 60 mg./kg.
[4] = 200 mg./kg. orally + Cytoxan 60 mg./kg.
[5] = 300 mg./kg. orally + Cytoxan 60 mg./kg.
[6] = 100 mg/kg orally days 6, 7, 8, reciprocal serum dilution, infected control 32, non-infected control 512
[7] = Cytoxan 60 mg./kg. intraperitoneally alone

CCCCN(CCCC)CCOc1ccc2cc3ccc(OCCN(CCCC)CCCC)cc3nc2c1 [3,6-Bis-(2-di-n-butylaminoethoxy)acri-dine trihydrochloride]
Hemagglutinin Titer* Test 1 ([1]; 100 mg/kg orally days 6, 7, 8): 32

CCN(CC)CCOc1ccc2cc3ccc(OCCN(CC)CC)cc3nc2c1.Cl.Cl.Cl [3,6-Bis-(2-diethylaminoethoxy)acridine trihydrochloride]
Ave. tumor diameter (mm.^2) (weeks after tumor implantation 3) ([2]; 100 mg./kg. orally + Cytoxan 60 mg./kg. i.p. (given 4 days after Cytoxan)): 34 mm.^2
Ave. tumor diameter (mm.^2) (weeks after tumor implantation 4) [2, 3]: 53 mm.^2
Ave. tumor diameter (mm.^2) (weeks after tumor implantation 5) [2, 3]: 112 mm.^2
Ave. tumor diameter (mm.^2) (weeks after tumor implantation 6) [2, 3]: 149 mm.^2
Ave. tumor diameter (mm.^2) (weeks after tumor implantation 7) [2, 3]: 107 mm.^2
Ave. tumor diameter (mm.^2) (weeks after tumor implantation 3) ([2]; 200 mg./kg. orally + Cytoxan 60 mg./kg. i.p. (given 4 days after Cytoxan)): 32 mm.^2
Ave. tumor diameter (mm.^2) (weeks after tumor implantation 4) [2, 4]: 66 mm.^2
Ave. tumor diameter (mm.^2) (weeks after tumor implantation 5) [2, 4]: 82 mm.^2
Ave. tumor diameter (mm.^2) (weeks after tumor implantation 6) [2, 4]: 115 mm.^2
Ave. tumor diameter (mm.^2) (weeks after tumor implantation 7) [2, 4]: 135 mm.^2
Ave. tumor diameter (mm.^2) (weeks after tumor implantation 3) ([2]; 200 mg./kg. orally alone, once every 7 days): 22 mm.^2
Ave. tumor diameter (mm.^2) (weeks after tumor implantation 4) ([2]; 200 mg./kg. orally alone): 44 mm.^2
Ave. tumor diameter (mm.^2) (weeks after tumor implantation 5) ([2]; 200 mg./kg. orally alone): 109 mm.^2
Ave. tumor diameter (mm.^2) (weeks after tumor implantation 6) ([2]; 200 mg./kg. orally alone): 148 mm.^2
Ave. tumor diameter (mm.^2) (weeks after tumor implantation 7) ([2]; 200 mg./kg. orally alone): 223 mm.^2
Ave. tumor diameter (mm.^2) (weeks after tumor implantation 3) ([2]; 300 mg./kg. orally + Cytoxan 60 mg./kg. i.p. (given 4 days after Cytoxan)): 37 mm.^2
Ave. tumor diameter (mm.^2) (weeks after tumor implantation 4) [2, 5]: 71 mm.^2
Ave. tumor diameter (mm.^2) (weeks after tumor implantation 5) [2, 5]: 99 mm.^2
Ave. tumor diameter (mm.^2) (weeks after tumor implantation 6) [2, 5]: 128 mm.^2
Ave. tumor diameter (mm.^2) (weeks after tumor implantation 7) [2, 5]: 160 mm.^2
Ave. tumor diameter (mm.^2) (weeks after tumor implantation 3) ([2]; 300 mg./kg. orally alone, once every 7 days): 61 mm.^2
Ave. tumor diameter (mm.^2) (weeks after tumor implantation 4) ([2]; 300 mg./kg. orally alone): 98 mm.^2
Ave. tumor diameter (mm.^2) (weeks after tumor implantation 5) ([2]; 300 mg./kg. orally alone): 220 mm.^2
Ave. tumor diameter (mm.^2) (weeks after tumor implantation 6) ([2]; 300 mg./kg. orally alone): 375 mm.^2
inhibitory effect on mammary tumor growth compared to the untreated control ([2]; administered alone at 300, 200 and 100 mg./kg. every week for 5 weeks): only the 200 mg./kg. dose level produced an inhibitory effect
tumor growth being inhibited ([2]; combined with Cytoxan 60 mg./kg., all dose levels (300, 200, 100 mg./kg.)): 50 - 65%
tumor diameter of treated mice averaging ([2]; combined with Cytoxan 60 mg./kg., all dose levels, 316 mm.^2 for the untreated controls): 107 - 160 mm.^2
Hemagglutinin Titer* Test 6 ([1]; 37.5 mg/kg orally days 6, 7, 8, reciprocal serum dilution): 64
Hemagglutinin Titer* Test 4 ([1]; 50 mg/kg orally days 6, 7, 8, reciprocal serum dilution, infected control 32, non-infected control 512): 128
Hemagglutinin Titer* Test 5 ([1]; 50 mg/kg orally days 6, 7, 8, reciprocal serum dilution): 128
Hemagglutinin Titer* Test 6 ([1]; 75 mg/kg orally days 6, 7, 8, reciprocal serum dilution): 128
Hemagglutinin Titer* Test 3 [1, 6]: 128
Hemagglutinin Titer* Test 4 [1, 6]: 256
Hemagglutinin Titer* Test 5 ([1]; 100 mg/kg orally days 6, 7, 8, reciprocal serum dilution): 512
Hemagglutinin Titer* Test 6 ([1]; 150 mg/kg orally days 6, 7, 8, reciprocal serum dilution): 128
Hemagglutinin Titer* Test 5 ([1]; 200 mg/kg orally days 6, 7, 8, reciprocal serum dilution): 512
Hemagglutinin Titer* Test 6 ([1]; 300 mg/kg orally days 6, 7, 8, reciprocal serum dilution): 128
Hemagglutinin Titer* Test 6 ([1]; 600 mg/kg orally days 6, 7, 8, reciprocal serum dilution): 256

CN(C)C(C)(C)COc1ccc2cc3ccc(OCC(C)(C)N(C)C)cc3nc2c1 [3,6-Bis-(2-dimethylamino-2-methylpro-poxy)acridine trihydrochloride]
Hemagglutinin Titer* Test 1 ([1]; 100 mg/kg orally days 6, 7, 8): 64

CN(C)CCOc1ccc2cc3ccc(OCCN(C)C)cc3nc2c1 [3,6-Bis-(2-dimethylaminoethoxy)acridine]
Hemagglutinin Titer* Test 1 ([1]; 100 mg/kg orally days 6, 7, 8): 128
Hemagglutinin Titer* Test 2 [1, 6]: 128

CN(C)CCCOc1ccc2cc3ccc(OCCCN(C)C)cc3nc2c1 [3,6-Bis-(3-dimethylaminopropoxy)acridine]
Hemagglutinin Titer* Test 1 ([1]; 100 mg/kg orally days 6, 7, 8): 128
Hemagglutinin Titer* Test 2 [1, 6]: 128

O=P1(N(CCCl)CCCl)NCCCO1 (stereo not drawn) [Cytoxan, reference compound]
effect of Cytoxan dose on mammary tumor growth ([2]; 60 mg./kg. alone): ineffective dose
Ave. tumor diameter (mm.^2) (weeks after tumor implantation 3) ([2]; Cytoxan 60 mg./kg. intraperitoneally alone, once every 7 days): 47 mm.^2
No. Survivors No. Treated ([2]; Cytoxan 60 mg./kg. intraperitoneally alone, untreated control 7/8): 6/8
Ave. tumor diameter (mm.^2) (weeks after tumor implantation 4) [2, 7]: 101 mm.^2
Ave. tumor diameter (mm.^2) (weeks after tumor implantation 5) [2, 7]: 187 mm.^2
Ave. tumor diameter (mm.^2) (weeks after tumor implantation 6) [2, 7]: 277 mm.^2
Ave. tumor diameter (mm.^2) (weeks after tumor implantation 7) [2, 7]: 363 mm.^2
